Activity calls are given as the source filed them. No rule for the calls is given here.
tested on: Saccharomyces cerevisiae lifespan shortening, growth inhibition; experiment: yeast lifespan shortening compounds, dose response (AID 849);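 also: yeast growth read as optical density after two days at 30 degrees C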

| Structure (SMILES) | IC50 |
| --- | --- |
| CC(C)CNC(=O)CN(C1CCCCC1)S(C)(=O)=O | > 100 µM (inactive) |
| CC(C)(C)n1nc(-c2ccc(Cl)cc2)c2c(N)ncnc21 | 20.7 µM |
| CCCn1c(C(C)NC(C)=O)nc2ccccc21 (centres undefined) | > 100 µM (inactive) |
| Cc1cccc(N=C2Sc3nc4c(C)c(C)ccc4cc3CN2CCN2CCOCC2)c1 | 44.7 µM |
| Cc1ccc(C(=O)CSC2=NC(N)=C(C#N)C3(CCCCC3)C2C(N)=O)cc1 (centres undefined) | > 100 µM (inactive) |
| CCC1CCCCN1C(=O)CSc1nnc(-c2ccc(OC)cc2)o1 (centres undefined) | > 100 µM (inactive) |
| Nc1[nH]c(=O)ncc1F | 11.8 µM |
| O=C(O)c1ccc(N(c2ccccc2)c2ccccc2)cc1 | > 100 µM (inactive) |
| O=c1[nH][nH]cc1C=Nc1ccccc1O | > 100 µM (inactive) |
| CCCCCC/C(=N/O)c1ccccn1 | 10.3 µM |
| COc1ccc(Br)cc1C1CC(=O)N2CN(C)CSC2=C1C#N (centres undefined) | > 100 µM (inactive) |
| CCCC(=O)NC(c1cccs1)c1cc([N+](=O)[O-])c2cccnc2c1O (centres undefined) | 16.6 µM |
| CC1(CCc2ccccc2)NC(=S)N(c2ccc(Cl)cc2)N1 (centres undefined) | 42 µM |
| CCCCC(=O)NNC(=S)NC(=O)CCC | 32.3 µM |
| Cn1c2ccccc2c2cc(C(=O)O)ccc21 | 25.4 µM |
| Cc1cc(C)c2c(N=NN(C)C)[nH]nc2n1 | 12.2 µM |
| O=C(O)C1C2C=CC(O2)C1C(=O)NC1CCCc2ccccc21 (centres undefined) | > 100 µM (inactive) |
| O=C1c2ccccc2NC(c2ccc(-c3cccc(Cl)c3)o2)N1O (centres undefined) | 35 µM |
| CC(C)(C)n1nc(-c2ccc(F)cc2)c2c(N)ncnc21 | < 0.098 µM |
| CCOC(=O)C1=Nc2ccccc2C1=[N+]=[N-] | 5.58 µM |

| Structure (SMILES) | IC50 |
| --- | --- |
| Cc1nc2c(c(C)c1C#N)C(=O)c1ccccc1-2 | 38.8 µM |
| Cc1cc(C(=O)N/N=C/c2cccc([N+](=O)[O-])c2O)n[nH]1 | > 100 µM (inactive) |
| COc1ccc2c(C)nc(Nc3nc(C)c(C)c(=O)[nH]3)nc2c1 | 15 µM |
| CC(C)c1ccc(NC(=S)NCCc2c[nH]c3ccccc23)cc1 | > 100 µM (inactive) |
| COc1ccc(/C=C/C(=O)c2cc(Br)ccc(=O)c2O)cc1 | 12.6 µM |
| c1cnc2c(c1)ccc1cccnc12 | 13.3 µM |
| O=C(OCn1ncc(Cl)c(Cl)c1=O)c1ccccc1Cl | 20.7 µM |
| Cc1cc(=O)[nH]c(SCc2nc3ccccc3s2)n1 | > 100 µM (inactive) |
| CN(c1ccccc1)c1ccc(/C=C/[N+](=O)[O-])cc1 | 49.2 µM |
| Cc1ccc(NC(=S)Nc2ccc(Cl)c(Cl)c2)c(OC(F)F)c1 | 22.2 µM |
| CC(C)(CNC(=S)NCCc1ccccc1)CNC(=S)NCCc1ccccc1 | > 100 µM (inactive) |
| CSC1=NSC2=NC(=O)/C(=C\c3coc4ccccc4c3=O)C(=N)N12 | > 100 µM (inactive) |
| CN1C(=O)c2cccc3c(Cl)ccc(c23)C1=O | > 100 µM (inactive) |
| COCCN1CSC(=S)N(Cc2ccco2)C1 | 20.1 µM |
| CC1=NNC(=O)/C1=C\c1cn(-c2ccccc2)nc1-c1cccs1 | 36.1 µM |
| Cc1cc(C)cc(N=Cc2ccc([N+](=O)[O-])s2)c1 | 13.1 µM |
| Cc1ccc(N2CCOCC2)c2c1C(=O)c1ccccc1C2=O | 9.55 µM |
| Cc1ccc(S(=O)(=O)Nc2ccc(SC(F)F)cc2)c(C)c1 | > 100 µM (inactive) |
| Cc1ccc(-c2cc(-c3ccccc3Cl)[nH]n2)c(O)c1 | 51.1 µM |

Source: PubChem BioAssay AID849 (SRMLSC, 2007)
